PubChem BioAssay (NCI)
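Compound exposure: 48 hours, 5 concentrations, 96-well plates. GI50: concentration for 50% inhibition of growth. TGI denotes the concentration required for complete inhibition of growth.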

Experiments:
Test in all cases: DTP human tumour cell line panel, 48 h
HCC-2998 colon = test system: HCC-2998 colon
PC-3 prostate = test system: PC-3 prostate
RXF 393 renal = test system: RXF 393 renal
M14 melanoma = test system: M14 melanoma
MALME-3M melanoma = test system: MALME-3M melanoma
SK-MEL-28 melanoma = test system: SK-MEL-28 melanoma
DU-145 prostate = test system: DU-145 prostate
OVCAR-5 ovarian = test system: OVCAR-5 ovarian
CAKI-1 renal = test system: CAKI-1 renal
SNB-75 CNS = test system: SNB-75 CNS

Compound	GI50 (HCC-2998 colon)	TGI (HCC-2998 colon)	GI50 (PC-3 prostate)	TGI (PC-3 prostate)	GI50 (RXF 393 renal)	TGI (RXF 393 renal)	GI50 (M14 melanoma)	TGI (M14 melanoma)	GI50 (MALME-3M melanoma)	TGI (MALME-3M melanoma)	GI50 (SK-MEL-28 melanoma)	TGI (SK-MEL-28 melanoma)	TGI (DU-145 prostate)	GI50 (OVCAR-5 ovarian)	TGI (OVCAR-5 ovarian)	TGI (CAKI-1 renal)	TGI (SNB-75 CNS)	GI50 (CAKI-1 renal)	GI50 (DU-145 prostate)	GI50 (SNB-75 CNS)
CCOC(=O)C1=C(C)N(N)C(=S)NC1c1ccc(C)cc1 (stereo unspecified)	811 nM	27.1 µM	32.8 µM	> 100 µM	6.44 µM	> 100 µM	27.5 µM	> 100 µM	14.4 µM	> 100 µM	6.99 µM	> 100 µM	12.3 µM	15.7 µM	> 100 µM	–	–	–	–	–
O/N=C\c1c(O)ccc2ccccc12	–	> 100 µM	–	> 100 µM	–	> 100 µM	–	> 100 µM	–	75.5 µM	–	> 100 µM	–	–	> 100 µM	> 100 µM	> 100 µM	–	–	–
COc1ccc(C2C(C#N)=C(N)OC3=C2COc2ccc(F)cc23)cc1OC (stereo unspecified)	–	–	23.2 µM	93.6 µM	69.3 µM	> 100 µM	40.1 µM	> 100 µM	–	–	51.8 µM	> 100 µM	> 100 µM	23.7 µM	80.9 µM	47.3 µM	–	16.5 µM	28.2 µM	–
C#C[C@]1(O)CC[C@H]2[C@@H]3CC=C4c5sc(Nc6ccccc6)nc5CC[C@]4(C)[C@H]3CC[C@@]21C	1910 nM	4.22 µM	1.22 µM	43.5 µM	–	–	1.6 µM	4.51 µM	1.31 µM	3.79 µM	0.692 µM	2.75 µM	4.71 µM	2.44 µM	9.68 µM	4.41 µM	7.41 µM	1.64 µM	1.87 µM	0.858 µM
O=C(CN1CCCCC1)N1CCc2c([nH]c3ccccc23)C1c1cccnc1 (stereo unspecified)	–	> 100 µM	–	–	–	> 100 µM	–	> 100 µM	–	–	–	> 100 µM	–	–	> 100 µM	> 100 µM	> 100 µM	–	–	–
COC(=O)C12C3C4C5(C(=O)OC)C(C1C35C(=O)N(C(C)C)C(C)C)C42C(=O)N(C(C)C)C(C)C (stereo unspecified)	–	> 50 µM	–	–	–	> 50 µM	–	> 50 µM	–	> 50 µM	–	> 50 µM	–	–	> 50 µM	> 50 µM	> 50 µM	–	–	–
O=C(CCC/C(CC(=O)c1ccc(Br)cc1)=N\O)Nc1ccccc1	–	> 100 µM	–	–	–	> 100 µM	–	> 100 µM	–	> 100 µM	–	> 100 µM	–	–	> 100 µM	–	> 100 µM	–	–	–
CCN(CC)CCNCC(=O)Oc1ccc(/C=C/C(=O)CC(=O)/C=C/c2ccc(OC(=O)CNCCN(CC)CC)c(OC)c2)cc1OC	2100 nM	4.36 µM	4.69 µM	> 100 µM	–	–	2.82 µM	11 µM	2.57 µM	7.65 µM	4.16 µM	46.2 µM	9.56 µM	3.83 µM	15.1 µM	15.8 µM	28.1 µM	3.2 µM	2.74 µM	6.31 µM
Cc1cc(C)n(CCNCCn2nc(C)cc2C)n1	–	> 100 µM	–	–	–	> 100 µM	–	> 100 µM	–	–	–	> 100 µM	–	–	–	> 100 µM	> 100 µM	–	–	–
Nc1ccncc1/C=C1/C(=O)Nc2ccccc21	25300 nM	59.9 µM	41.1 µM	> 100 µM	–	–	20.5 µM	59.6 µM	20.6 µM	80.9 µM	28.9 µM	> 100 µM	> 100 µM	75.3 µM	> 100 µM	89.7 µM	63.2 µM	30.2 µM	44.9 µM	18.5 µM
CCOC(=O)CCc1c(C)c2c(OC(C)=O)cc(OC(C)=O)cc2oc1=O	–	> 100 µM	–	–	–	73.3 µM	–	> 100 µM	–	55.5 µM	–	> 100 µM	–	–	> 100 µM	> 100 µM	> 100 µM	–	–	–
O=C(Nc1cccc(Cl)c1Cl)c1cccc(NC2=C(Cl)C(=O)N(Cc3ccccc3)C2=O)c1	–	–	26.9 µM	97.4 µM	–	–	35.8 µM	> 100 µM	> 100 µM	> 100 µM	> 100 µM	> 100 µM	> 100 µM	89.5 µM	> 100 µM	> 100 µM	> 100 µM	33.2 µM	21.2 µM	> 100 µM
O=C1c2ccn(CCCCNC(CO)(CO)CO)c2C(=O)c2c1c(O)c1ccccc1c2O	170 nM	0.515 µM	2.83 µM	7.57 µM	–	–	1.86 µM	3.59 µM	–	–	6.44 µM	> 43.6 µM	4.69 µM	1.91 µM	4.4 µM	2.68 µM	47.2 µM	0.808 µM	1.89 µM	11.9 µM
CC1=C(C(=O)Nc2c(C)cccc2C)C(c2ccccc2Cl)C(C(=O)Nc2c(C)cccc2C)=C(C)N1	–	> 100 µM	–	–	–	> 100 µM	–	> 100 µM	–	> 100 µM	–	> 100 µM	–	–	> 100 µM	> 100 µM	> 100 µM	–	–	–
N#C/C(=C\c1ccc(O)c(O)c1)C(N)=O	–	> 100 µM	–	–	–	51.6 µM	–	> 100 µM	–	> 100 µM	–	> 100 µM	–	–	> 100 µM	> 100 µM	> 100 µM	–	–	–
CC(=O)OCC1OC([S-])C(OC(C)=O)C(OC(C)=O)C1OC(C)=O.CC[PH+](CC)CC.CC[PH+](CC)CC.[Au].[Au] (stereo unspecified)	801 nM	1.95 µM	–	–	0.0434 µM	0.197 µM	0.14 µM	0.322 µM	0.137 µM	0.32 µM	0.167 µM	0.791 µM	–	1.59 µM	2.96 µM	0.987 µM	1.16 µM	0.292 µM	–	0.249 µM
NC1CCCC[C@H]1N.N[C@@H]1CCCC[C@@H]1N.O=C(P(=O)([O-])[O-])P(=O)([O-])[O-].[Pt+4].[Pt+4]	> 100000 nM	> 100 µM	–	–	> 100 µM	> 100 µM	> 100 µM	> 100 µM	> 100 µM	> 100 µM	> 100 µM	> 100 µM	–	> 100 µM	> 100 µM	> 100 µM	> 100 µM	> 100 µM	–	> 100 µM
CC(C)(C)N1CC2(CCCCC2)C1=O	–	> 100 µM	–	–	–	> 100 µM	–	> 100 µM	–	> 100 µM	–	> 100 µM	–	–	> 100 µM	> 100 µM	> 100 µM	–	–	–
